For assay [1], the system named is Human immunodeficiency virus 1. The assay can be described thus: Inhibitory concentration was evaluated to inhibit 95% of HIV-1 spread in MT4 cells.
Assay [2] addresses Human immunodeficiency virus type 1 protease (Human immunodeficiency virus 1, UniProt Q72874). Put plainly: Inhibition of HIV-1 protease.

`CC(C)(C)OC(=O)N[C@@H](Cc1ccccc1)[C@@H](O)C[C@@H](Cc1ccccc1)C(=O)N[C@H]1c2ccccc2C[C@H]1O`: in assay [1], the concentration for an effect of 95% (IC95) – broadly, the concentration at which the effect reaches the 95% level – worked out at 400 nM.

Turning to `O=C(N[C@@H](Cc1ccccc1)[C@@H](O)C[C@@H](Cc1ccccc1)C(=O)N[C@H]1c2ccccc2C[C@H]1O)O[C@@H]1CCCOC1`, in assay [2], the IC50 (usually the concentration at which inhibition is half-maximal) is less than 0.03 nM. Also, the 95% effect level in assay [1] (IC95) was put at 25 nM.

`CC(C)(C)NC(=O)[C@@H]1C[C@@H]2CCCC[C@@H]2CN1C[C@@H](O)[C@H](Cc1ccccc1)NC(=O)O[C@H]1C=CCOC1` yielded an IC50 in assay [2] of 314 nM.

In assay [2], `O=C(N[C@@H](Cc1ccccc1)[C@@H](O)C[C@@H](Cc1ccccc1)C(=O)N[C@H]1c2ccccc2C[C@H]1O)O[C@H]1CCOC1` displayed an IC50 of less than 0.03 nM. The compound further yielded an IC95 in assay [1] of 3 nM.

`O=C(N[C@@H](Cc1ccccc1)[C@@H](O)C[C@@H](Cc1ccccc1)C(=O)N[C@H]1c2ccccc2C[C@H]1O)O[C@@H]1CCOC1` returned an IC50 in assay [2] of 0.03 nM. The same compound showed an IC95 in assay [1] of 100 nM.

On to `O=C(N[C@@H](Cc1ccccc1)[C@@H](O)C[C@@H](Cc1ccccc1)C(=O)N[C@H]1c2ccccc2C[C@H]1O)OC1CCOCC1`, for which the IC50 in assay [2] came out at 1.22 nM.

Turning to `O=C(N[C@@H](Cc1ccccc1)[C@@H](O)C[C@@H](Cc1ccccc1)C(=O)N[C@H]1c2ccccc2C[C@H]1O)O[C@H]1CCCOC1`, the IC50 in assay [2] is less than 0.03 nM. In assay [1], it took 50 nM to reach the 95% level (IC95).

The compound `CC(C)(C)NC(=O)[C@@H]1C[C@@H]2CCCC[C@@H]2CN1C[C@@H](O)[C@H](Cc1ccccc1)NC(=O)O[C@H]1CCCOC1` yielded an IC50 in assay [2] of 392 nM.

In assay [2], `CC(C)(C)NC(=O)[C@@H]1C[C@@H]2CCCC[C@@H]2CN1C[C@@H](O)[C@H](Cc1ccccc1)NC(=O)O[C@@H]1CCCOC1` came in with an IC50 of 308 nM.

Regarding `CC(C)(C)NC(=O)[C@@H]1C[C@@H]2CCCC[C@@H]2CN1C[C@@H](O)[C@H](Cc1ccccc1)NC(=O)OC(C)(C)C`, the IC50 in assay [2] was more than 3000 nM.

The compound `CC(C)(C)NC(=O)[C@@H]1C[C@@H]2CCCC[C@@H]2CN1C[C@@H](O)[C@H](Cc1ccccc1)NC(=O)O[C@@H]1C=CCOC1` returned an IC50 in assay [2] of 48.9 nM.

In assay [2], `O=C(N[C@@H](Cc1ccccc1)[C@@H](O)C[C@@H](Cc1ccccc1)C(=O)N[C@H]1c2ccccc2C[C@H]1O)OC1CCCC1` yielded an IC50 of 0.33 nM. In assay [1], this compound came in with an IC95 of 400 nM.
